Converted amounts (≈) assume the structure as drawn. Where a SMILES comes first, the peptide text is derived from it. Bridges are numbered along the chain shown (N, C = ends). [ ]: non-standard residue; d: D form. S5 = C=CCCC[C@](C)(N)C(=O)O
Key:
Assay in all cases: microbe, parasite or virus in culture
[1] = test system: C. albicans 901; settings: for Minimum inhibitory concentration (MIC): 901, 48 h
Procedure: (§1) The in vitro antifungal activities of the target peptides were evaluated according to protocols from the CLSI. The broth microdilution method was used to determine the minimum inhibitory concentration (MIC) of the target peptides in 96-well plates. Fluconazole was used as a reference drug.
(§2) Clinical isolates of C. albicans SC5314, 901, 904, C. tropicalis ATCC20026 and clinical isolate 895, C. glabrata ATCC1182 and clinical isolate 896, C. krusei ATCC2340, and C. parapsilosis ATCC22010 are from the collection library in the Drug Discovery and Development Center, Naval Medical University, Shanghai, China. C. auris clinical isolates are provided by Linqi Wang (Institute of Microbiology, Chinese Academy of Sciences) and Changbin Chen (Institut Pasteur of Shanghai, Chinese Academy of Sciences). All strains were cultured in YPD (1% yeast extract, 2% peptone, and 2% glucose) liquid medium overnight at 30 °C with shaking at 220 rpm.
(§3) The MICs of chemicals against all strains were determined by the micro broth dilution method according to the Clinical and Laboratory Standards Institute (Wayne PA, Reference Method for Broth Dilution Antifungal Susceptibility Testing of yeasts, approved Standard M27-A3, 3 rd ed; Clinical and Laboratory Standards Institute (CLSI): USA, 2008). The initial concentration of fungal suspension in RPMI 1640 medium was 3–5 × 10^3 colonies forming unit (CFU)/mL, which was added to 96-well plates. Peptides were prepared in dimethyl sulfoxide (DMSO) with an initial stored concentration of 6.4 mg/mL. Serial dilutions were made based on the CLSI M27 guide to obtaining the final concentrations ranging from 0.125 to 64 μg/mL for fluconazole and 0.25 to 128 μg/mL for peptides […]. The plates were incubated at 30 °C for 48 h. Optical density was measured at 630 nm, and background optical densities were subtracted from that of each well. The definition of MIC is the lowest concentration at which 80% of tested strains cannot grow.

[2] = test system: C. albicans 904; settings: for Minimum inhibitory concentration (MIC): 904, 48 h
Procedure: as §1, §2, §3

[3] = test system: C. albicans SC5314; settings: SC5314, 48 h
Procedure: as §1, §2, §3

[4] = test system: C. auris 918; settings: for Minimum inhibitory concentration (MIC): 918, 48 h
Procedure: as §1, §2, §3

[5] = test system: C. auris 919; settings: for Minimum inhibitory concentration (MIC): 919, 48 h
Procedure: as §1, §2, §3

[6] = test system: C. glabrata 896; settings: for Minimum inhibitory concentration (MIC): 896, 48 h
Procedure: as §1, §2, §3

[7] = test system: C. glabrata ATCC 1182; settings: for Minimum inhibitory concentration (MIC): ATCC 1182, 48 h
Procedure: as §1, §2, §3

[8] = test system: C. krusei ATCC 2340; settings: for Minimum inhibitory concentration (MIC): ATCC 2340, 48 h
Procedure: as §1, §2, §3

[9] = test system: C. parapsilosis ATCC 22010; settings: for Minimum inhibitory concentration (MIC): ATCC 22010, 48 h
Procedure: as §1, §2, §3

[10] = test system: C. tropicalis 895; settings: for Minimum inhibitory concentration (MIC): 895, 48 h
Procedure: as §1, §2, §3

[11] = test system: C. tropicalis ATCC 20026; settings: for Minimum inhibitory concentration (MIC): ATCC 20026, 48 h
Procedure: as §1, §2, §3

[12] = Candidozyma auris, 48 h, read-out: Minimum inhibitory concentration (MIC)

| Structure (SMILES) | Minimum inhibitory concentration (MIC) [1] [µg/mL] | Minimum inhibitory concentration (MIC) [2] [µg/mL] | Minimum inhibitory concentration (MIC) [3] [µg/mL] | Minimum inhibitory concentration (MIC) [4] [µg/mL] | Minimum inhibitory concentration (MIC) [5] [µg/mL] | Minimum inhibitory concentration (MIC) [6] [µg/mL] | Minimum inhibitory concentration (MIC) [7] [µg/mL] | Minimum inhibitory concentration (MIC) [8] [µg/mL] | Minimum inhibitory concentration (MIC) [9] [µg/mL] | Minimum inhibitory concentration (MIC) [10] [µg/mL] | Minimum inhibitory concentration (MIC) [11] [µg/mL] | other results |
| --- | --- | --- | --- | --- | --- | --- | --- | --- | --- | --- | --- | --- |
| OC(Cn1cncn1)(Cn1cncn1)c1ccc(F)cc1F [Fluconazole, reference compound] | – | – | – | – | – | – | – | – | – | – | – | MIC ([1]; Candida albicans, 901, 48 h, read-out: Minimum inhibitory concentration (MIC)): > 64 µg/mL; MIC ([2]; Candida albicans, 904, 48 h, read-out: Minimum inhibitory concentration (MIC)): > 64 µg/mL; MIC ([3]; Candida albicans, read-out: Minimum inhibitory concentration (MIC)): 0.5 µg/mL (≈ 1.63 µM); MIC [4, 12]: > 128 µg/mL; MIC [5, 12]: > 128 µg/mL; MIC ([6]; Nakaseomyces glabratus, 48 h, read-out: Minimum inhibitory concentration (MIC)): > 128 µg/mL; MIC ([7]; Nakaseomyces glabratus, ATCC1182, 48 h, read-out: Minimum inhibitory concentration (MIC)): 2 µg/mL (≈ 6.53 µM); MIC ([8]; Pichia kudriavzevii, ATCC2340, 48 h, read-out: Minimum inhibitory concentration (MIC)): 64 µg/mL (≈ 209 µM); MIC ([9]; Lodderomyces parapsilosis, ATCC22010, 48 h, read-out: Minimum inhibitory concentration (MIC)): 1 µg/mL (≈ 3.27 µM); MIC ([10]; Candida tropicalis, 895, 48 h, read-out: Minimum inhibitory concentration (MIC)): > 128 µg/mL; MIC ([11]; Candida tropicalis, ATCC20026, 48 h, read-out: Minimum inhibitory concentration (MIC)): 1 µg/mL (≈ 3.27 µM) |
| CC[C@H](C)[C@H](NC(=O)[C@H](CCCCN)NC(=O)[C@H](CCCCN)NC(=O)[C@@H](NC(=O)[C@]1(C)CCCC=CCCC[C@](C)(NC(C)=O)C(=O)N[C@@H](CC(C)C)C(=O)N[C@@H](Cc2ccccc2)C(=O)N[C@@H](CC(=O)O)C(=O)N1)[C@@H](C)CC)C(=O)N[C@@H](C)C(=O)N[C@@H](CCC(=O)O)C(=O)N[C@@H](CO)C(=O)N[C@@H](Cc1ccccc1)C(N)=O [Sau-1] (Ac-[S5]LFD[S5]IKKIAESF-NH2; staple 1-5) | 32 (≈ 20 µM) | >128 | >64 | >128 | >128 | >128 | >128 | >128 | 128 (≈ 79.9 µM) | >128 | >128 | – |
| CC[C@H](C)[C@H](NC(=O)[C@H](CCCCN)NC(=O)[C@H](CCCCN)NC(=O)[C@]1(C)CCCC=CCCC[C@](C)(NC(=O)CNC(C)=O)C(=O)N[C@@H](Cc2ccccc2)C(=O)N[C@@H](CC(=O)O)C(=O)N[C@@H]([C@@H](C)CC)C(=O)N1)C(=O)N[C@@H](C)C(=O)N[C@@H](CCC(=O)O)C(=O)N[C@@H](CO)C(=O)N[C@@H](Cc1ccccc1)C(N)=O [Sau-2] (Ac-G[S5]FDI[S5]KKIAESF-NH2; staple 2-6) | >128 | >128 | >64 | >128 | >128 | 128 (≈ 82.8 µM) | >128 | >128 | >128 | 16 (≈ 10.4 µM) | >128 | – |
| CC[C@H](C)[C@H](NC(=O)[C@H](CCCCN)NC(=O)[C@]1(C)CCCC=CCCC[C@](C)(NC(=O)[C@H](CC(C)C)NC(=O)CNC(C)=O)C(=O)N[C@@H](CC(=O)O)C(=O)N[C@@H]([C@@H](C)CC)C(=O)N[C@@H]([C@@H](C)CC)C(=O)N1)C(=O)N[C@@H](C)C(=O)N[C@@H](CCC(=O)O)C(=O)N[C@@H](CO)C(=O)N[C@@H](Cc1ccccc1)C(N)=O [Sau-3] (Ac-GL[S5]DII[S5]KIAESF-NH2; staple 3-7) | >128 | >128 | >64 | >128 | >128 | >128 | >128 | >128 | >128 | >128 | >128 | – |
| CC[C@H](C)[C@@H]1NC(=O)[C@H]([C@@H](C)CC)NC(=O)[C@@](C)(NC(=O)[C@H](Cc2ccccc2)NC(=O)[C@H](CC(C)C)NC(=O)CNC(C)=O)CCCC=CCCC[C@@](C)(C(=O)N[C@H](C(=O)N[C@@H](C)C(=O)N[C@@H](CCC(=O)O)C(=O)N[C@@H](CO)C(=O)N[C@@H](Cc2ccccc2)C(N)=O)[C@@H](C)CC)NC(=O)[C@H](CCCCN)NC1=O [Sau-4] (Ac-GLF[S5]IIK[S5]IAESF-NH2; staple 4-8) | >128 | >128 | >64 | >128 | >128 | >128 | >128 | >128 | >128 | >128 | >128 | – |
| CC[C@H](C)[C@H](NC(=O)[C@H](CC(=O)O)NC(=O)[C@H](Cc1ccccc1)NC(=O)[C@H](CC(C)C)NC(=O)CNC(C)=O)C(=O)N[C@@]1(C)CCCC=CCCC[C@@](C)(C(=O)N[C@@H](CCC(=O)O)C(=O)N[C@@H](CO)C(=O)N[C@@H](Cc2ccccc2)C(N)=O)NC(=O)[C@H]([C@@H](C)CC)NC(=O)[C@H](CCCCN)NC(=O)[C@H](CCCCN)NC1=O [Sau-6] (Ac-GLFDI[S5]KKI[S5]ESF-NH2; staple 6-10) | >128 | >128 | >64 | >128 | >128 | >128 | >128 | >128 | >128 | >128 | >128 | – |
| CC[C@H](C)[C@@H]1NC(=O)[C@H](CCCCN)NC(=O)[C@@](C)(NC(=O)[C@@H](NC(=O)[C@@H](NC(=O)[C@H](CC(=O)O)NC(=O)[C@H](Cc2ccccc2)NC(=O)[C@H](CC(C)C)NC(=O)CNC(C)=O)[C@@H](C)CC)[C@@H](C)CC)CCCC=CCCC[C@@](C)(C(=O)N[C@@H](CO)C(=O)N[C@@H](Cc2ccccc2)C(N)=O)NC(=O)[C@H](C)NC1=O [Sau-7] (Ac-GLFDII[S5]KIA[S5]SF-NH2; staple 7-11) | >128 | >128 | >64 | >128 | >128 | >128 | >128 | >128 | >128 | >128 | >128 | – |
| CC[C@H](C)[C@H](NC(=O)[C@H](CC(=O)O)NC(=O)[C@H](Cc1ccccc1)NC(=O)[C@H](CC(C)C)NC(=O)CNC(C)=O)C(=O)N[C@H](C(=O)N[C@@H](CCCCN)C(=O)N[C@@]1(C)CCCC=CCCC[C@@](C)(C(=O)N[C@@H](Cc2ccccc2)C(N)=O)NC(=O)[C@H](CCC(=O)O)NC(=O)[C@H](C)NC(=O)[C@H]([C@@H](C)CC)NC1=O)[C@@H](C)CC [Sau-8] (Ac-GLFDIIK[S5]IAE[S5]F-NH2; staple 8-12) | >128 | >128 | >64 | >128 | >128 | >128 | >128 | >128 | >128 | >128 | >128 | – |

From article PMC8389037, “Design, Synthesis and Antifungal Activity of Stapled Aurein1.2 Peptides” (Antibiotics, 2021)
